Laboratory results published in PubChem BioAssay (NCI).
Values joined by “and” are separate entries in the source; they are usually repeats but may differ in a detail not shown here. Identical values can stand only once.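 The compound was tested at five concentrations on cells cultured in 96-well plates, with a 48-hour exposure period. GI50: concentration for 50% inhibition of growth. TGI: concentration producing complete growth inhibition.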

Columns and labels:
Test in all cases: NCI tumour cell line growth inhibition, 48 h
HL-60(TB) leukemia = system: HL-60(TB) leukemia
KM12 colon = system: KM12 colon
MALME-3M melanoma = system: MALME-3M melanoma
MCF7 breast = system: MCF7 breast
MDA-MB-231 breast = system: MDA-MB-231 breast
NCI/ADR-RES ovarian = system: NCI/ADR-RES ovarian
PC-3 prostate = system: PC-3 prostate
RXF 393 renal = system: RXF 393 renal
SW-620 colon = system: SW-620 colon
UACC-257 melanoma = system: UACC-257 melanoma

SMILES | TGI (HL-60(TB) leukemia) | TGI (KM12 colon) | TGI (MALME-3M melanoma) | TGI (MCF7 breast) | TGI (MDA-MB-231 breast) | TGI (NCI/ADR-RES ovarian) | TGI (PC-3 prostate) | TGI (RXF 393 renal) | TGI (SW-620 colon) | TGI (UACC-257 melanoma) | GI50 (HL-60(TB) leukemia) | GI50 (KM12 colon) | GI50 (MDA-MB-231 breast) | GI50 (NCI/ADR-RES ovarian) | GI50 (PC-3 prostate) | GI50 (SW-620 colon) | GI50 (UACC-257 melanoma) [µM] | GI50 (MALME-3M melanoma) [µM] | GI50 (MCF7 breast) | GI50 (RXF 393 renal)
O=C1c2ccccc2C(=O)N1CCCSc1ccccc1 | > 100 µM | > 100 µM | > 100 µM | > 100 µM | > 100 µM | > 100 µM | > 100 µM | > 100 µM | > 100 µM | > 100 µM |  |  |  |  |  |  |  |  |  | 
CO[C@@H]1/C=C\C=C(/C)C(=O)NC2=CC(=O)C(NCCN(C)C)=C(C[C@@H](C)C[C@@H](OC)[C@@H](O)[C@H](C)/C=C(\C)[C@H]1OC(N)=O)C2=O | 1.4 µM and 0.734 µM | 1.02 µM and 0.448 µM | 3.73 µM and 0.562 µM | 1.88 µM and 3.8 µM | 7.26 µM and 2.24 µM | 29.6 µM and 62.7 µM | 33.6 µM and 17.8 µM | 11.8 µM and 10.8 µM | 20.6 µM | 2.06 µM and 1.27 µM | < 0.0106 µM and 0.0715 µM | 0.0147 µM | 0.019 µM and 0.018 µM | 5.55 µM and 17.7 µM | < 0.01 µM and 0.0264 µM | < 0.01 µM and 0.0487 µM | 0.0196 |  |  | 
CN[C@@H](C)C(=O)N[C@H](C(=O)N1CCC[C@H]1C(=O)N[C@H]1c2ccccc2C[C@H]1OCC#CC#CCO[C@@H]1Cc2ccccc2[C@@H]1NC(=O)[C@@H]1CCCN1C(=O)[C@@H](NC(=O)[C@H](C)NC)C1CCCCC1)C1CCCCC1 | 0.252 µM | 7.96 µM |  | 3.23 µM |  | > 100 µM | 18.7 µM |  | 11.5 µM | 28.8 µM | < 0.01 µM | 2.66 µM | < 0.01 µM | 12 µM | 6.04 µM | 3.6 µM | 13.5 | < 0.01 | 1.47 µM | < 0.0371 µM
CC(=O)N[C@H]1C=C[C@@H]2/C=C(C)/C=C/[C@@H](C)[C@H]([C@H](C)[C@H](O)[C@@H](C)NC(C)=O)OC(=O)/C=C/C=C(C)\C=C\[C@]2(C)C1 | 4.65 µM and 20.6 µM | 4.65 µM and > 45 µM | 4.65 µM and 24.7 µM | 4.65 µM and > 45 µM | 0.0235 µM and < 0.0045 µM | 4.65 µM and > 45 µM | 4.65 µM and > 45 µM |  | 4.65 µM and > 45 µM | 4.65 µM and 16.5 µM |  | 0.0246 µM and 0.0045 µM | 0.00333 µM and < 0.0045 µM | 0.213 µM and 0.0397 µM | 0.0202 µM and 0.0045 µM | 0.0178 µM and 0.0045 µM |  |  | 0.0336 µM and 0.0045 µM | 0.0103 µM and 0.0045 µM
ClCc1cccc(Cn2cnc3c(NC45CC6CC(CC(C6)C4)C5)ncnc32)c1 | 26.6 µM | 30.6 µM | 32.4 µM | 45.5 µM | 39.3 µM | 41.9 µM | 40.2 µM | 36.7 µM | 46.2 µM | 37.4 µM | 1.24 µM | 14.6 µM | 15.5 µM | 16.2 µM | 19 µM | 19.1 µM | 16 | 14.6 | 9.1 µM | 11.4 µM
CC1=C2[C@@H](CC1)[C@]1(C)O[C@@](C3CCCCC3)(C[C@H]1OC(=O)CO)[C@H]2OC(=O)/C=C/c1ccccc1 | 18.3 µM | 24.7 µM | 28 µM | 13.4 µM | 41.5 µM | 11.6 µM | 21.2 µM | 0.483 µM | 25.1 µM | 26 µM | 6.48 µM | 8.34 µM | 18.3 µM | 0.186 µM | 6.33 µM | 9.26 µM | 12.3 | 12 | 3.09 µM | 0.029 µM
COc1cc(Nc2nccc(Nc3ccc4c(C)[nH]nc4c3)n2)cc(OC)c1OC | 9.04 µM | 3.06 µM | 10.2 µM | 16.9 µM | 10.5 µM | 13.7 µM | > 20.5 µM | 3.21 µM | 15.1 µM | 5.96 µM | 3.31 µM | 0.68 µM | 1.76 µM | 4.39 µM | 2.33 µM | 2.71 µM | 1.22 | 1.4 | 1.62 µM | 0.683 µM
CC(=O)c1c(C)[nH]c(-c2nc3ccc(N4CCN(C)CC4)cc3[nH]2)c1-c1ccc(OCC2CCOCC2)cc1 | 0.785 µM | 14.6 µM | 2.57 µM | 11.6 µM | 16.9 µM | 30.5 µM | 19.3 µM | 2.83 µM | 18 µM | 4.42 µM | 0.129 µM | 0.924 µM | 0.946 µM | 1.02 µM | 0.693 µM | 1.68 µM | 0.789 | 0.72 | 0.218 µM | 0.696 µM
CC(=O)Nc1ccc(C(=O)NN2C(=O)C(Cl)C2c2ccc(Cl)cc2)cc1 (centres undefined) | > 100 µM | > 100 µM | > 65.8 µM | > 100 µM | 70.3 µM | > 100 µM | > 100 µM |  | > 100 µM | > 100 µM |  |  |  |  |  |  |  |  |  | 
CC(O)c1cccc(NCc2c3ccccc3c(=O)n3c2oc2ccccc23)c1 (centres undefined) | > 100 µM | > 100 µM |  | > 100 µM | 47.9 µM | 28.5 µM | > 100 µM | 67.8 µM | > 100 µM | 47.7 µM | > 100 µM | 13.4 µM | 13.3 µM | 11.8 µM | 7.11 µM | 13.6 µM | 8.24 |  | > 100 µM | 22.5 µM
Cn1c([N+](=O)[O-])cnc1/C=C1\Oc2ccccc2C1=O | 1.5 µM | 2.46 µM | 3.2 µM | 8.88 µM | 4.39 µM | 4.45 µM | > 22.7 µM |  | 2.02 µM | 2.84 µM | 0.28 µM | 0.412 µM | 0.703 µM | 0.392 µM | 1.46 µM | 0.15 µM | 0.682 | 0.626 | 0.46 µM | 
O=c1c2c(nc3n1CCS3)[nH]c1ccccc12 |  | > 100 µM | > 100 µM | > 100 µM | > 100 µM | > 100 µM | > 100 µM | > 100 µM | > 100 µM | > 100 µM |  | > 100 µM | 33.4 µM | > 100 µM | > 100 µM | > 100 µM | > 100 | > 100 | > 100 µM | 58.6 µM
Nc1ccc(N(S(=O)(=O)c2ccccc2)S(=O)(=O)c2ccccc2)c(Cl)c1 |  | > 100 µM | > 100 µM | > 100 µM | > 100 µM | > 100 µM | > 100 µM | > 100 µM | > 100 µM | > 100 µM |  |  |  |  |  |  |  |  |  | 
COc1cc(C(=O)/C(C)=C/c2c[nH]c3ccccc23)cc(OC)c1OC | 0.00652 µM |  | > 100 µM | > 100 µM | > 100 µM | > 100 µM | > 100 µM | > 100 µM | > 100 µM |  | 0.00228 µM | 0.00359 µM | 0.0039 µM | 0.00322 µM | 0.00789 µM | 0.00416 µM |  | 14.2 | 0.00357 µM | 1.81 µM
